In patent US20040082503A1, “Methods for treatment of diabetes using peptide analogues of insulin” (Neurocrine Biosciences, Inc., priority 1998, published 2004):

Tests used:
[1] = test system: Soluble NBI-6024 induced T cells (IL-2, IL-4, IL-5 production); experiment: Cytokine production by NBI-6024 induced T cells (ELISA); type: cell-based, NOD mouse; conditions: for Cytokine IL-2: 48 h supernatant
Protocol: FIG. 18 is a histogram, showing a comparison of the cytokines produced by immune cells induced by A^16,19 (NBI-6024) peptide in the presence or absence of adjuvant. Groups of NOD mice were immunized with the NBI-6024 alone or emulsified with CFA. The cytokines IL-2 and IL-4, as indicated, were measured at 25 μM of NBI-6024 and expressed as pg/mL after subtracting the background values.
To determine the type of T cells produced following soluble administration of NBI-6024, the culture supernatants from immune lymphoid cells were removed 48 hours following the initiation of culture and the levels of various cytokines measured using standard ELISA technology. […] Within Table 8, values are expressed in pg/ml as mean of triplicates±SEM.

DQ8 antigens = experiment: Binding to DQ8 antigens
[2] = test system: Insulin specific NOD T cell clone PD6-4.3; experiment: Proliferation of insulin-specific NOD T cell clone PD6-4.3; type: cell-based, mouse (NOD); conditions: 50 μg/ml peptide, 72 h, 3H-thymidine; no antigen 163 cpm
Protocol: (§1) Insulin specific NOD T cell lines were established by culturing lymphocytes isolated from islet-infiltrating populations by in vitro stimulation with either porcine insulin at 25 μg/ml and irradiated NOD islet cell in the presence of irradiated NOD spleen cells as antigen presenting cells and cytokines. To obtain the infiltrating lymphocytes the following procedures were performed (see Wegmann et al., Eur. J. Immunol. 24:1853, 1994): the pancreas from the NOD mouse was digested with collagenase and individual islets were isolated manually. The infiltrating lymphocytes were then obtained by mild trypsin digestion of the islets. The insulin specific T cell lines or clones were propagated by serial stimulation in the presence of NOD spleen cells, porcine insulin and lymphokines. Clones were obtained by limiting dilution of the B chain (9-23) specific T cell lines in the presence of the antigen presenting cells and porcine insulin at 25 μg/ml. Wells with a growing population of cells following limiting dilution were expanded in appropriate medium, and after one cycle of growth were tested for reactivity to the B chain (9-23) peptide of insulin by evaluating the proliferative response.
(§2) Insulin B chain (9-23) (SEQ ID NO:2) specific mouse (NOD) T cell clones were isolated from infiltrated islets as described in Example 2. Peptide analogues with single alanine substitutions were prepared as described in Example 1. The effect of each analogue on T cell proliferation was then evaluated using an assay performed in 96-well flat bottom microtiter plates (see Daniel et al., Eur. J. Immunol. 25:1056, 1995). Briefly 25,000 T cell clones along with 1 million irradiated NOD spleen cells were cultured in the presence of 50 μg/ml of insulin B chain 9-23 peptide or any of the alanine substituted peptides listed below in triplicate sets. The plates were incubated for a total of 72 hours in 7% carbon dioxide atmosphere with a pulse of 1 μCi/well of tritiated thymidine for the last 6-8 hours of culture. Cells were harvested on a glass fiber filter and the associated radioactivity was counted in a liquid scintillation counter. Results are expressed as mean counts per minute of triplicate wells.

[3] = test system: Insulin specific NOD T cell clone PD12-4.34; experiment: Proliferation of insulin-specific NOD T cell clone PD12-4.34; type: cell-based, mouse (NOD); conditions: 50 μg/ml peptide, 72 h, 3H-thymidine; no antigen 231 cpm
Protocol: as §1, §2

[4] = test system: Insulin specific NOD T cell clone PD12-4.29; experiment: Proliferation of insulin-specific NOD T cell clone PD12-4.29; type: cell-based, mouse (NOD); conditions: 50 μg/ml peptide, 72 h, 3H-thymidine; no antigen 789 cpm
Protocol: as §1, §2

[5] = soluble NBI-6024 induced T cells cultured with NBI-6024 5 μM
[6] = soluble NBI-6024 induced T cells cultured with NBI-6024 25 μM

Binding affinity to DQ8 antigens (DQ8 antigens)	Substance	Cytokine production profile ([1]; NBI-6024 emulsified with CFA (control))	Cytokine production profile ([1]; T cells from mice immunized with soluble NBI-6024)	Cytokine IL-4 ([1]; soluble NBI-6024 induced T cells cultured with NBI-6024 1 μM, 0: 134 ± 0)	Cytokine IL-5 ([1]; soluble NBI-6024 induced T cells cultured with NBI-6024 1 μM, 0: 1,814 ± 332)	Cytokine IL-2 ([1]; soluble NBI-6024 induced T cells cultured with NBI-6024 1 μM)	Cytokine IL-4 [1, 5]	Cytokine IL-5 [1, 5]	Cytokine IL-2 [1, 5]	Cytokine IL-4 [1, 6]	Cytokine IL-5 [1, 6]	Cytokine IL-2 [1, 6]	Response (cpm) of T cell clone PD6-4.3 [2]	Response (cpm) of T cell clone PD12-4.34 [3]	Response (cpm) of T cell clone PD12-4.29 [4]
binds with similar affinity	NBI-6024: insulin B chain 9-23 with alanine substitutions at positions 16 and 19 (SHLVEALALVAGERG)	did induce the expected Th1-cytokine profile (IL-2)	produced the Th2 cytokines, interleukin-4 (FIG. 18) and interleukin-5 (Table 8), and not the Th1-derived interleukin-2	684 ± 92 pg/mL	9,999 ± 503 pg/ml	<15 pg/mL	1,653 ± 51 pg/ml	23,496 ± 684 pg/ml	<15 pg/mL	2,102 ± 85 pg/ml	28,062 ± 141 pg/ml	<15 pg/mL			
	Native 9-23: native peptide, residues 9-23 of human insulin B chain (SEQ ID NO:2) (SHLVEALYLVCGERG; Residues 9-23 of human insulin B chain; listed as Homo sapiens) [reference compound]												10463 cpm	3614 cpm	14820 cpm
